Columns and labels:
[1] = biological target: Vascular endothelial growth factor receptor 2 (Rattus norvegicus, UniProt O08775); test: Kinase Inhibition Assay
Procedure: (§1) The enzyme was assayed with a biotinylated peptide substrate and test compounds in the presence of 5 uM ATP/[gamma-33P]ATP in a streptavidin coated FlashPlate (Perkin-Elmer, Boston, MA). Inhibition of the enzymatic activity due to the compound was measured by observing a reduced amount of 33P-gamma-ATP incorporated into the immobilized peptide relative to untreated controls. Linear regression analysis of the percent of inhibition by the test compound was used to calculate IC50 values.

[2] = biological target: Cyclin-dependent kinase/G2/mitotic-specific cyclin- 1 (Homo sapiens, UniProt P06493); test: Kinase Inhibition Assay; settings: pH 8; 30 °C
Procedure: as §1

Sequence of Vascular endothelial growth factor receptor 2 (O08775 whole entry): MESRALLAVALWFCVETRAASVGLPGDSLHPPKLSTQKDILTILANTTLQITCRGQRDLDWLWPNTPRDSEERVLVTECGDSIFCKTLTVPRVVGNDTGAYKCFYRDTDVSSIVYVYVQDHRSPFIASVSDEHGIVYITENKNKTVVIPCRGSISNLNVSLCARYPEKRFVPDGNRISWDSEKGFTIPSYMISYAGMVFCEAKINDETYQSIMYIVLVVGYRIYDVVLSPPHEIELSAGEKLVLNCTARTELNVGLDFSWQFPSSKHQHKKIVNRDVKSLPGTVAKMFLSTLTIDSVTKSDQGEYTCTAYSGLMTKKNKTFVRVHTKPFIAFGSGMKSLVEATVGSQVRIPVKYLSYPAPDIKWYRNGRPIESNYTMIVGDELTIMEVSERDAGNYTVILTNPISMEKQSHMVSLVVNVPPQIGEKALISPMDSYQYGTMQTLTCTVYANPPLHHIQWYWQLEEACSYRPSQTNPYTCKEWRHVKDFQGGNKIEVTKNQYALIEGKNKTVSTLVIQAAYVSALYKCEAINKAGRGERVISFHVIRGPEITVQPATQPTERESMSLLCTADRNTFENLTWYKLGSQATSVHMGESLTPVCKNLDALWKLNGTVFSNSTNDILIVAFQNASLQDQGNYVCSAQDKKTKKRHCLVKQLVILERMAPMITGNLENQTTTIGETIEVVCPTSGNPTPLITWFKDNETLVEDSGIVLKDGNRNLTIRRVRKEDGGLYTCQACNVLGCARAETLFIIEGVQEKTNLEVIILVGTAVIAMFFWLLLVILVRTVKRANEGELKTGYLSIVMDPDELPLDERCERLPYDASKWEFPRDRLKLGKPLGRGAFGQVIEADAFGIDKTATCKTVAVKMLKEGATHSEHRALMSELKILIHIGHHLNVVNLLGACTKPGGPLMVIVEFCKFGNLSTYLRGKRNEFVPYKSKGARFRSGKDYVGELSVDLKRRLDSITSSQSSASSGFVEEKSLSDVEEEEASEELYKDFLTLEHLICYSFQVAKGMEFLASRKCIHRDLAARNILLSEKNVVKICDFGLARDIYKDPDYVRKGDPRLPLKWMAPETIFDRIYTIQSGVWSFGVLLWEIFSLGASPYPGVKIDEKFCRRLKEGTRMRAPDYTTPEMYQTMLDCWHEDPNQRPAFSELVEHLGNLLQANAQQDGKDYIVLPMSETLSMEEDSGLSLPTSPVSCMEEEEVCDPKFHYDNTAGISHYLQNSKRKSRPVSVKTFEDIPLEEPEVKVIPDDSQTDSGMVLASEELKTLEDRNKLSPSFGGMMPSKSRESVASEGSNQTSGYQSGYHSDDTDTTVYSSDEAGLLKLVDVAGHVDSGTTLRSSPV
Sequence of Cyclin-dependent kinase/G2/mitotic-specific cyclin- 1 (P06493 whole entry): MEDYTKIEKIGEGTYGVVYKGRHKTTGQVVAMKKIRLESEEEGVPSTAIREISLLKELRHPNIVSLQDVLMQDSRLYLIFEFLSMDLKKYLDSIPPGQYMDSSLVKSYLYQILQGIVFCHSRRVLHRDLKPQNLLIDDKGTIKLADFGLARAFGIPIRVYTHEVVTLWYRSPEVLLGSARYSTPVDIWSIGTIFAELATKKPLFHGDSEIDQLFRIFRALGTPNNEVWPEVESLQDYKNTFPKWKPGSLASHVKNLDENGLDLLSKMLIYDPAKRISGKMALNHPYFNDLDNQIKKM
Sequence of Cyclin-dependent kinase/G2/mitotic-specific cyclin- 1 (P14635 whole entry, further chain): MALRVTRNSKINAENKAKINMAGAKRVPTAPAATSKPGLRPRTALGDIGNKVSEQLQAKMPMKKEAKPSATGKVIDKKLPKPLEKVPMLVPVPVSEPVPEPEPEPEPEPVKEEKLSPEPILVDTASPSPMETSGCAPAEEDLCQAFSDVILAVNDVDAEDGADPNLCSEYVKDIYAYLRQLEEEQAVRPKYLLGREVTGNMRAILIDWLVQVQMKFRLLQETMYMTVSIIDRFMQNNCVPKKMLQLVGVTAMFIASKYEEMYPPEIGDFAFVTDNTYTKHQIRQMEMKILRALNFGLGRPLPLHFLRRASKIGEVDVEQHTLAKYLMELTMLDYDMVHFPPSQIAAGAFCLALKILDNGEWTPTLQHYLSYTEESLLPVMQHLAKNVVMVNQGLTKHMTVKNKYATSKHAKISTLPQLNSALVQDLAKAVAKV

| IC50 [1] | IC50 [2] | Structure (SMILES) |
| --- | --- | --- |
| > 10 µM | – | OCCCNc1ccc(-c2cncc(Nc3cccc(Cl)c3)n2)nc1 [3-{[6-[6-((3-Chlorophenyl)amino)pyrazin-2-yl]pyridin-3-yl]amino}propan-1-ol] |
| > 10 µM | > 10 µM | OCCCNc1cncc(-c2ncncc2Nc2cccc(Cl)c2)c1 [3-[[5-[5-[(3-Chlorophenyl)amino]-4-pyrimidinyl]-3-pyridinyl]amino]-1-propanol] |
| > 10 µM | – | OCCCNc1cncc(-c2cc(Nc3cccc(Cl)c3)ncn2)c1 [3-[(5-{6-[(3-chlorophenyl)amino]pyrimidin-4-yl}pyridin-3-yl)amino]propan-1-ol] |
| > 10 µM | – | OCCCNc1cncc(-c2ncc(Nc3cccc(Cl)c3)cn2)c1 [3-[(5-{5-[(3-chlorophenyl)amino]pyrimidin-2-yl}pyridin-3-yl)amino]propan-1-ol] |
| > 10 µM | – | OCCCNc1cccc(-c2cncc(Nc3cccc(Cl)c3)n2)n1 [3-[(6-{6-[(3-chlorophenyl)amino]pyrazin-2-yl}pyridin-2-yl)amino]propan-1-ol] |
| > 10 µM | – | OCCCNc1cncc(-c2cnc(Nc3cccc(Cl)c3)cn2)c1 [3-[[5-[5-[(3-chlorophenyl)amino]pyrazinyl]-3-pyridinyl]amino]-1-propanol] |
